Data taken from paper PMC11184554, “Nature-Inspired Gallinamides Are Potent Antischistosomal Agents: Inhibition of the Cathepsin B1 Protease Target and Binding Mode Analysis” (ACS Infectious Diseases, 2024).

Columns and labels:
recombinant SmCB1 = assay: Kinetic inhibition assay with recombinant SmCB1 (k2nd); type: biochemical, S. mansoni; conditions: for SmCB1 inhibition k2nd: second-order rate constant (kinact/Ki), substrate Cbz–Phe–Arg–AMC, pH 5.5, 37 °C, mean ± SE; for decrease in inhibition potency vs 8 / decrease in inhibitory potency vs gallinamide A: ratio of k2nd values; for decrease in inhibition potency vs 8: range over the compounds named
Method: Gallinamide A and a series of its 18 derivatives were evaluated in vitro as inhibitors of SmCB1 to explore the binding specificities of the subsites in the enzyme’s active site. The gallinamide A inhibitor scaffold can be defined by positions P4 through P1′ (Schechter and Berger nomenclature[37]), which were assigned according to the binding mode analysis (see the crystallographic section below). The substituents R4, R1, and R1′ introduced on the scaffold (Table 2) are numbered according to the respective positions P4, P1, and P1′. The compounds’ second-order rate constants (k2nd) were determined using a kinetic inhibition assay with recombinant SmCB1 and the substrate, Cbz–Phe–Arg–AMC.
Inhibition measurements were performed in duplicate in 96-well microplates (100 μL assay volume) at 37 °C. SmCB1 (40 pM) was added to a mixture of the fluorogenic substrate Cbz–Phe–Arg–AMC (25 μM) and an inhibitor (0–100 μM) in 0.1 M sodium acetate, pH 5.5, containing 2.5 mM dithiothreitol and 0.01% (w/v) BRIJ 35. Substrate hydrolysis was monitored in an Infinite M1000 microplate reader (Tecan) at excitation and emission wavelengths of 360 and 465 nm, respectively, for up to 150 min. An observed first-order rate constant, kobs, was calculated at each inhibitor concentration by fitting the progress curve to the equation P = vi/kobs(1 – exp(−kobst)) + d where P is the product formation, t is the reaction time, vi is the initial velocity, and d is the offset. […] The second-order rate constant, k2nd, (and SE value) was determined by fitting the linear equation kobs = (k2nd[I])/(1 + [S]/Km), where [S] is the substrate concentration, [I] is the inhibitor concentration, and KM is the Michaelis–Menten constant. The KM value determined for SmCB1 was 25 μM. […] To determine IC50 values, SmCB1 (40 pM) was preincubated with the inhibitor (0–100 μM) for 30 min under assay conditions as described above, followed by the addition of the fluorogenic substrate Cbz–Phe–Arg–AMC (20 μM). Substrate hydrolysis was monitored for 30 min in a microplate reader as described above. The IC50 values were determined by nonlinear regression using GraFit software (Erithacus Software).

[1] = tested on: S. mansoni newly transformed schistosomula (NTS); assay: Phenotypic screen with newly transformed schistosomula (NTS); type: cell-based
Method: The same 19 gallinamides were screened for bioactivity against S. mansoni newly transformed schistosomula (NTS), the postinvasive parasite stage that feeds on host blood.[40] In this primary assay, the NTS were exposed to 1 and 10 μM compounds for 3 days, and the resulting phenotypic responses were graded from 0 through 4, i.e., the least to the most severe (Table 2 and Table S1). […] The effects were more pronounced after 72 h, and when the higher, 10 μM, compound concentration was used (Table S1). […] Also, compared to gallinamide A and its analogs, 3 has an additional N-terminal N-acetamide modification that further reduces bioactivity (Table 2).
Phenotypic screens employed S. mansoni newly transformed schistosomula (NTS) and adults and were carried out as described previously.[18]−[20],[42] NTS were prepared by mechanically transforming infective larvae (cercariae).[40],[42] NTS (200–300 parasites) were incubated in flat-bottomed 96-well plates in 200 μL of Basch Medium 169 containing 5% (v/v) FBS, 100 U mL^–1 penicillin and 100 μg mL^–1 streptomycin (complete Basch medium)[75] at 5% CO2 and 37 °C.[76],[77] Inhibitors were added at final concentrations of 1 and 10 μM, and changes in phenotypes were observed under an inverted microscope every 24 h for up to 72 h.
A constrained nomenclature of “descriptors”[39],[42] was used to record the multiple and dynamic changes in movement, shape, and translucence that the schistosome parasite is capable of (Table S1 for NTS and Table S3 for adults). These descriptors were then converted into an ordinal “severity score” system ranging from 0 (no effect) to 4 (maximum effect), which allows for the relative comparison of compound effects.

[2] = Phe in R1 changed from S to R configuration
[3] = 1 μM compound, 24 h, scale 0 (no effect) to 4 (most severe)
[4] = 1 μM compound, 48 h, scale 0 to 4
[5] = 1 μM compound, 72 h, scale 0 to 4
[6] = 10 µM compound, 24 h, scale 0 to 4
[7] = 10 µM compound, 48 h, scale 0 to 4
[8] = 10 µM compound, 72 h, scale 0 to 4
[9] = Phe in R1′ changed from S to R configuration

Structure (SMILES)	decrease in inhibition vs 14 (recombinant SmCB1; [2]) [fold]	SmCB1 inhibition k2nd (recombinant SmCB1) [M^–1·s^–1]	schistosomula severity score [1, 3]	schistosomula severity score [1, 4]	schistosomula severity score [1, 5]	schistosomula severity score [1, 6]	schistosomula severity score [1, 7]	schistosomula severity score [1, 8]	decrease in inhibition vs 7 (recombinant SmCB1; [2]) [fold]	improvement of inhibition vs 18 (recombinant SmCB1; [9]) [fold]	schistosomula phenotype descriptors ([1]; 10 µM compound, 24 h)	improvement of inhibition vs 14 (recombinant SmCB1; [9]) [fold]	schistosomula phenotype descriptors ([1]; 1 µM compound, 48 h)	decrease in inhibition potency vs 8 (recombinant SmCB1)	decrease in inhibitory potency vs gallinamide A (recombinant SmCB1) [fold]	decrease in k2nd (recombinant SmCB1; absence of a double bond in the acrylamide group)	schistosomula phenotype descriptors ([1]; 10 µM compound, 48 h)	schistosomula phenotype descriptors ([1]; 10 µM compound, 72 h)	improvement of inhibition vs 17 (recombinant SmCB1; [9]) [fold]	schistosomula phenotype descriptors ([1]; 1 µM compound, 72 h)
CCC(C)C(C(=O)OC(CC(C)C)C(=O)NC(CC(C)C)C(=O)NC(C=CC(=O)N1C(=O)C=C(OC)C1Cc1ccccc1)Cc1ccccc1)N(C)C (stereo not drawn) [compound 18]	3.4	16.0 ± 0.2	0	0	0	1	4	4	–	–	–	–	–	–	–	–	–	–	–	–
CCC(C)C(C(=O)OC(CC(C)C)C(=O)NC(CC(C)C)C(=O)NC(C=CC(=O)N1C(=O)C=C(OC)C1Cc1ccccc1)Cc1ccccc1)N(C)C (stereo not drawn) [compound 15]	–	41.6 ± 1.6	0	3	–	2	4	4	23	2.6	Dark, R	–	–	–	–	–	–	–	–	–
CCC(C)C(C(=O)OC(CC(C)C)C(=O)NC(CC(C)C)C(=O)NC(C=CC(=O)N1C(=O)C=C(OC)C1Cc1ccccc1)Cc1ccccc1)N(C)C (stereo not drawn) [compound 7]	–	942 ± 50	0	3	4	1	4	4	–	–	–	17	Dark, R, S	–	–	–	–	–	–	–
COC1=CC(=O)N(C(=O)/C=C/[C@H](Cc2ccccc2)NC(=O)[C@H](CC(C)C)NC(=O)[C@H](CC(C)C)OC(=O)[C@H](Cc2ccccc2)N(C)C)[C@H]1C [compound 12]	–	212 ± 30	1	2	4	3	4	4	–	–	Dark, R, S	–	Dark, R	4.2–49 fold	–	–	–	–	–	–
C#CCCCCOC1=CC(=O)N(C(=O)C=CC(C)NC(=O)C(CC(C)C)NC(=O)C(CC(C)C)OC(=O)C(C(C)CC)N(C)C)C1C (stereo not drawn) [compound 5]	–	2792 ± 360	0	4	4	1	4	4	–	–	–	–	–	–	2.4	–	–	–	–	–
CCC(C)C(C(=O)NC(CC(C)C)C(=O)NC(CC(C)C)C(=O)NC(C)C=CC(=O)N1C(=O)C=C(OC)C1C)N(C)C (stereo not drawn) [compound 4]	–	2894 ± 113	0	0	4	1	4	4	–	–	–	–	–	–	2.3	–	–	–	–	–
CCC(C)C(C(=O)OC(CC(C)C)C(=O)NC(CC(C)C)C(=O)NC(C=CC(=O)N1C(=O)C=C(OC)C1Cc1ccccc1)Cc1ccccc1)N(C)C (stereo not drawn) [compound 14]	–	54.5 ± 1.3	0	3	4	1	4	4	–	–	–	–	–	4.2–49 fold	–	–	–	–	–	–
CCC(C)C(C(=O)OC(CC(C)C)C(=O)NC(CC(C)C)C(=O)NC(C)CCC(=O)N1C(=O)C=C(OC)C1C)N(C)C (stereo not drawn) [compound 16]	–	36.9 ± 0.3	0	0	0	0	2	2	–	–	–	–	–	–	–	2 orders of magnitude	Dark, R	Dark, R	–	–
COC1=CC(=O)N(C(=O)/C=C/[C@H](Cc2ccccc2)NC(=O)[C@H](CC(C)C)NC(=O)[C@H](CC(C)C)OC(=O)[C@H](Cc2ccccc2)N(C)C)[C@H]1Cc1ccccc1 [compound 17]	–	18.2 ± 0.2	0	0	4	1	4	4	–	–	–	–	–	4.2–49 fold	–	–	–	–	–	–
COC1=CC(=O)N(C(=O)/C=C/[C@H](C)NC(=O)[C@H](CC(C)C)NC(=O)[C@H](CC(C)C)OC(=O)[C@H](C(C)C)N(C)C)[C@H]1C [compound 2]	–	3334 ± 559	0	1	4	4	4	4	–	–	–	–	–	–	2	–	–	–	–	–
CCC(C)C(C(=O)OC(CC(C)C)C(=O)NC(CC(C)C)C(=O)NC(C=CC(=O)N1C(=O)C=C(OC)C1C)Cc1ccccc1)N(C)C (stereo not drawn) [compound 8]	–	887 ± 46	1	4	4	3	4	4	–	–	Dark, R, S	–	–	–	7.5	–	–	–	–	–
COC1=CC(=O)N(C(=O)/C=C/[C@H](Cc2ccccc2)NC(=O)[C@H](CC(C)C)NC(=O)[C@H](CC(C)C)OC(=O)[C@H](C(C)C)N(C)C)[C@H]1CC(C)C [compound 11]	–	295 ± 17	1	3	4	1	4	4	–	–	–	–	Dark, R, S	–	–	–	–	–	–	–
COC1=CC(=O)N(C(=O)/C=C/[C@H](Cc2ccccc2)NC(=O)[C@H](CC(C)C)NC(=O)[C@H](CC(C)C)OC(=O)[C@H](Cc2ccccc2)N(C)C)[C@@H]1Cc1ccccc1 [compound 13]	–	109 ± 2	0	2	4	2	4	4	–	–	Dark, R	–	–	–	–	–	–	–	6	–
CCC(C)C(NC(C)=O)C(=O)NC(CC(C)C)C(=O)NC(CC(C)C)C(=O)NC(C)C=CC(=O)N1C(=O)C=C(OC)C1C (stereo not drawn) [compound 3]	–	2902 ± 172	0	0	2	0	2	2	–	–	–	–	–	–	2.3	–	Dark, R	Dark, R	–	Dark, R
